Literature values as cited in patent US8073633B2 (The Invention Science Fund I, LLC, priority 2008, dated 2011).

What was measured:
[1] = coadministered itraconazole relative to placebo
[2] = given with grapefruit juice as compared to water
[3] = in vivo

| Structure (SMILES) | change of area under the serum concentration-time curve [AUC (0-infinity)] [1] | change of peak serum concentration (Cmax) [1] | percentage change in Cmax values [2] [%] | innate oral bioavailability [3] | also measured |
| --- | --- | --- | --- | --- | --- |
| O=P1(N(CCCl)CCCl)NCCCO1 (stereo not drawn) [cyclophosphamide] |  |  |  |  | relative risk for ovarian failure (lupus nephritis patients homozygous or heterozygous for CYP2C19*2, pulse cyclophosphamide therapy): 0.10; probability of progressing to end stage renal disease (patients homozygous for CYP2B6*5 or CYP2C19*2 (P=0.0005)): higher probability; probability of achieving a complete renal response (patients homozygous for CYP2B6*5 or CYP2C19*2 (P=0.051)): lower probability |
| CCC(C)(C)C(=O)O[C@H]1C[C@@H](C)C=C2C=C[C@H](C)[C@H](CC[C@@H](O)C[C@@H](O)CC(=O)O)[C@H]21 [simvastatin acid] | at least tenfold | at least tenfold |  |  |  |
| CC[C@H](C)C(=O)O[C@H]1C[C@H](O)C=C2C=C[C@H](C)[C@H](CC[C@@H](O)C[C@@H](O)CC(=O)O)[C@H]21 [pravastatin] | slightly increased | slightly increased |  |  | plasma half-life [1]: not altered |

Second part, led by results:

| change of area under the serum concentration-time curve [AUC (0-infinity)] [1] | change of peak serum concentration (Cmax) [1] | percentage change in Cmax values [2] [%] | innate oral bioavailability [3] | Structure (SMILES) | also measured |
| --- | --- | --- | --- | --- | --- |
|  |  | 409 | very low | COC(=O)C1=C(C)NC(C)=C(C(=O)OCC(C)C)C1c1ccccc1[N+](=O)[O-] (stereo not drawn) [nisoldipine] |  |
|  |  | 115 | very high | CCOC(=O)C1=C(COCCN)NC(C)=C(C(=O)OC)C1c1ccccc1Cl (stereo not drawn) [amlodipine] |  |
